From paper PMC9780888, “4-Isobutylmethcathinone—A Novel Synthetic Cathinone with High In Vitro Cytotoxicity and Strong Receptor Binding Preference of Enantiomers” (Pharmaceuticals, 2022) come the findings set out here.

Molecules are shown by their SMILES. Counter-ions that a name gives are not always drawn.

One assay concerns the target T1, dopamine receptor DAR2 (Homo sapiens, UniProt P14416).
T1 construct: host or cells: HTLA (HEK 293-derived)
The experiment in a line: PRESTO-Tango β-arrestin 2 recruitment assay, DAR2. It counts as cell-based. As to conditions: for RLU value relative to control (transfected but untreated HTLA cells): DAR2, 500 nM. An excerpt: (§1) However, binding to a specific receptor/transporter and, thus, the mechanism of action of a given cathinone always depends on the specific structure of the evaluated compound [37]. In this study, the binding activity of IBMcat and its enantiomers was verified by PRESTO-Tango (parallel receptor expression and screening via transcriptional output, with transcriptional activation following arrestin-2 translocation) assay using the HTLA cell line stably producing β-arrestin-2 in a fusion with TEV and luciferase production driven by tTA. For this purpose, the HTLA cells were transiently transfected with plasmid DNA encoding the dopamine receptors type 1-4 (DAR1-4), which also contain the TEV protease cleavage site followed by tTA at the 3’-end (DAR1-Tango, DAR2-Tango, DAR3-Tango, DAR4-Tango). In the case of the receptor activation by a ligand, in transfected cells, the receptor is desensitized by β-arrestin fused to TEV protease. This brings the TEV protease close to the site that specifically cleaves and, thus, the transcription factor can be cleaved. The transcription factor then translocates to the cell nucleus, in which it triggers the transcription of the target gene for luciferase production which can be determined by the light emitted from luciferin conversion to oxyluciferin. Here, the pronounced luminescence was recorded for all DAR1-4 types in HTLA cells treated with IBMCat and its enantiomers (Figure 8).
(§2) The HTLA cell line was used for the PRESTO-Tango β-arrestin recruitment assay. […]
(§3) The transfected HTLA cells were incubated for 24 h, and then 1 × 10^4 cells were seeded per well of a white 96-well clear bottom plate (Brand, Germany) in 40 μL of DMEM with 1% charcoal-stripped FBS (Thermo Fisher Scientific, USA). […] After 5 min., the luminescence was measured using a multi-mode microplate reader SpectraMax iD5 (Molecular Devices, San Jose, CA, USA) measuring the entire wavelength spectrum. All samples were measured in quadruplicates. The data were evaluated by Prism 7 software (GraphPad, San Jose, CA, USA).
Background: Arrestin recruitment assays detect the binding of arrestin to an activated receptor.

The next assay concerns the target T2, dopamine receptor DAR3 (Homo sapiens, UniProt P35462).
T2 construct: host or cells: HTLA (HEK 293-derived)
Kind of assay: PRESTO-Tango β-arrestin 2 recruitment assay, DAR3. As to conditions: for increase in RLU compared to the control: DAR3, 500 nM. It counts as cell-based.
Text: as §1, §2, §3

T2 sequence (P35462 whole entry): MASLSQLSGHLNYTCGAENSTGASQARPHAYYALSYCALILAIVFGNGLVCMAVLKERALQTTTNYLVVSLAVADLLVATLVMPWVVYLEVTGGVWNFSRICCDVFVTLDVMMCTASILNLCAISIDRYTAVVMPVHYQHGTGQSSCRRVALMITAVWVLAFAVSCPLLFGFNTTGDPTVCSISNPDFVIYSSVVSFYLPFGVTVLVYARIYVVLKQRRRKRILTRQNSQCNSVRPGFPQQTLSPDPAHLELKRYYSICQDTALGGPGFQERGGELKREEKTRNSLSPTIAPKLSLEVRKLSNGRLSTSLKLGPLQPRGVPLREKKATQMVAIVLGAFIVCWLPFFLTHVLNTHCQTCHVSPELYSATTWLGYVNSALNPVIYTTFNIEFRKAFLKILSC
T1 sequence (P14416 whole entry): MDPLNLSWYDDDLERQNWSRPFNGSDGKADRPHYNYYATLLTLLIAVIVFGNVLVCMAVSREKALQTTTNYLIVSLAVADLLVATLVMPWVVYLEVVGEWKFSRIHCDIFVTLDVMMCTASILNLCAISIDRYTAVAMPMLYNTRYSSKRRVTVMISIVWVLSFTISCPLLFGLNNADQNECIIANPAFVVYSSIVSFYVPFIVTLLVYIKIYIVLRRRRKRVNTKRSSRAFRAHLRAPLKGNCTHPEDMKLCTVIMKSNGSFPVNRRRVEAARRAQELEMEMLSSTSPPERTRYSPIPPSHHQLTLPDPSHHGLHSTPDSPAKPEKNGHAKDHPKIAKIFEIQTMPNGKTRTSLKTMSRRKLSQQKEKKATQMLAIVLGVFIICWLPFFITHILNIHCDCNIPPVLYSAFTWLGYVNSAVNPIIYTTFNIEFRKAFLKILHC

For `CN[C@H](C)C(=O)c1ccc(CC(C)C)cc1` [R-IBMCat], the “effect on DAR2-expressing cells” value on dopamine receptor DAR2 (0-500 nM) is on record as “no effect”. For the same compound, at dopamine receptor DAR3 (0-500 nM), the “effect on DAR3-expressing cells” value is on record as “no effect”.

Take `CNC(C)C(=O)c1ccc(CC(C)C)cc1.Cl` (stereo not drawn) [IBMcat, 4-isobutylmethcathinone hydrochloride]: the “RLU value relative to control (transfected but untreated HTLA cells)” value on dopamine receptor DAR2 was “approximately 5 fold”. The “increase in RLU compared to the control” value at dopamine receptor DAR3 came to 5 fold.

For `CN[C@@H](C)C(=O)c1ccc(CC(C)C)cc1` [S-IBMCat, (S)-4-isobutylmethcathinone hydrochloride], the “RLU value relative to control (transfected but untreated HTLA cells)” value at dopamine receptor DAR2 is about 3 fold. In addition, the “increase in RLU compared to the control” value on dopamine receptor DAR3 is recorded as 6.5 fold.
